# Assay results published in article PMC7216583 (Parasites & Vectors, 2020).
# Structures can show the parent of a compound that is named as a salt. Where two headings read alike, the source gives them in different places.
# What was measured:
# A375 cells = tested on: A375 cells; set-up: method as in library vendor description; conditions: Hsp90 inhibitor; ref library vendor description; cited from earlier work
# [1] = tested on: Toxoplasma gondii RH-2F tachyzoites; assay: microbe, parasite or virus in culture; conditions: 72 h
# [2] = set-up: method as in library vendor description; conditions: target not given; ref library vendor description; read-out: IC50 (DNA-damaging agent); cited from earlier work
# Aurora A = target: Aurora A; set-up: method as in library vendor description; conditions: ref library vendor description; cited from earlier work
# in vitro = conditions: human; for viability at 72 h: Host viability (%) mean
# [3] = tested on: NS3/4A protease of hepatitis C virus (HCV); set-up: method as in library vendor description; conditions: ref library vendor description; cited from earlier work
# [4] = cited from earlier work
# RH GFP-TgAtg8 parasites = assay: Invasion assay; conditions: pre-treated 8 h, GSK-J4 HCl 5 μM, invasion for 1 h
# GFP-TgAtg8 tachyzoites [5] = assay: Egress assay (A23187-induced); conditions: compound for 24 h, 3 μM A23187 for 5 min
# [6] = tested on: Toxoplasma gondii RH-2F tachyzoites; assay: microbe, parasite or virus in culture; assay type: cell-based; conditions: 72 h, read-out: IC50 for parasite growth
# Kasumi-1 cells [7] = conditions: in vitro; read-out: IC50 against Kasumi-1 cells; cited from earlier work
# [8] = tested on: human foreskin fibroblasts (HFFs); assay: In vitro drug efficacy: dose-response host cell viability by CCK8 (TD50); assay type: cell-based; conditions: uninfected HFFs, serial dilutions 0 to 100 μM, 72 h
# Experimental: Each selected compound with an initial concentration of 100 μM in the culture medium was added to the first column of HFFs (~ 250 cells/well) in a 96-well half-area plate and then diluted serially across the plate by 2-fold dilutions, leaving the final column drug-free. […] Fifty tachyzoites were then added at a MOI of 1:5 to each well in six of the eight rows. After a 72 h incubation, CPRG was added, and the absorbance was measured at 570 nm. Meanwhile, to measure the effect of each compound on the viability of host cells, CCK8 reagent was added to the two rows of uninfected HFFs and absorbance at 450 nm was measured after 2 h. The assay was performed in triplicate and repeated three times.
# T. gondii RH strain = assay: Murine model of acute toxoplasmosis: survival; assay type: in vivo, BALB/c mice; conditions: 50 mg/kg oral once daily for 5 days, RH tachyzoites ip, 20-day observation, n = 10; vehicle 11.9 ± 0.74 days
# Experimental: To evaluate the ability of the two compounds to protect against acute T. gondii infection in vivo, we used a BALB/c murine model and challenged the mice with the RH-2F strain of T. gondii. Mice were divided into 4 groups consisting of 15 mice each and injected intraperitoneally with 10^3 RH strains per animal. Compounds were dissolved in DMSO and diluted in PBS prior to feeding to mice. After 4 h of infection, mice were treated for 5 consecutive days with daily oral administration of the specified compound at 50 mg/kg (once a day). Mice treated with pyrimethamine (50 mg/kg) were used as a positive control, and 1 ml PBS containing 11 μl of DMSO was used as a negative control. Within each group, 5 mice were euthanized at 7 dpi for comparison of parasite burden, and 10 mice were part of a 20-day survival experiment. Mice were monitored as described previously and scored twice per day for signs of toxoplasmosis, such as impaired mobility, difficulty in feeding, weight loss, self-mutilation and severe ascites. […] At the end of the experimental period, all remaining mice were euthanized.
# [9] = tested on: RH GFP-TgAtg8 tachyzoites; assay: Intracellular proliferation assay; conditions: NVP-AEW541 […], GSK-J4 HCl 5 μM, 24 h after 2 h infection
# GFP-TgAtg8 tachyzoites [10] = assay: Flow cytometric analysis of the parasite cell cycle (PI staining); assay type: cell-based, Toxoplasma gondii; conditions: 8 h with compound after PDTC synchronization
# Experimental: Flow cytometric analyses were performed as described previously. Briefly, HFFs were infected with GFP-TgAtg8 tachyzoites at a MOI = 1. At 12 hpi, the cell cycle was synchronized by adding 80 μM pyrrolidine dithiocarbamate (PDTC, Sigma-Aldrich) and incubating at 37 °C and 5% CO2 for 8 h. After removing the PDTC, cells were incubated at 37 °C and 5% CO2 for 8 h in media containing the specified compound. The extracellular parasites were removed by washing with ice-cold PBS, and the intracellular tachyzoites were isolated by passage of host cells through a 27-gauge needle and purified with a 3 μm filter. The purified parasites were fixed with ice cold ethanol at − 20 °C for 24 h, and their DNA was stained by using propidium iodide (PI) solution (40 μg/ml PI, 360 μg/ml RNase A and 2% BSA in PBS) at 37 °C for 30 min in the dark. The stained parasites were filtered with a 5 μm pore filter and analysed on a FACSCanto™II flow cytometer (BD Biosciences, CA, USA). The results were analysed on an EPICS-XL flow cytometer (Beckman Coulter, CA, USA) by using SYSTEM II software (Beckman Coulter), and the percentages of the population in each phase of the cell cycle (G1, S, and G2 +M) were calculated. At least 10,000 events were collected per sample.
# Kasumi-1 cells [11] = tested on: Kasumi-1 cells; set-up: dose or concentration left out as unconfirmed; conditions: cited from earlier work
# OSA 8 cells = tested on: OSA 8 cells; set-up: method as in library vendor description; conditions: HSP90 inhibitor; ref library vendor description; cited from earlier work
# PANC1 cells = tested on: PANC1 cells; set-up: method as in library vendor description; conditions: ref library vendor description; cited from earlier work
# Capan2 cells = tested on: Capan2 cells; set-up: method as in library vendor description; conditions: ref library vendor description; cited from earlier work
# BxPC3 cells = tested on: BxPC3 cells; set-up: method as in library vendor description; conditions: ref library vendor description; cited from earlier work
# MIAPaCa2 cells = tested on: MIAPaCa2 cells; set-up: method as in library vendor description; conditions: ref library vendor description; cited from earlier work
# c-Raf-1Y340D/Y341D = tested on: c-Raf-1Y340D/Y341D; set-up: method as in library vendor description; conditions: ref library vendor description; cited from earlier work
# CDK9 = tested on: CDK9; set-up: method as in library vendor description; conditions: ref library vendor description; cited from earlier work
# rat 17,20-lyase = target: rat 17,20-lyase; set-up: method as in library vendor description; conditions: ref library vendor description; cited from earlier work
# human 17,20-lyase = target: human 17,20-lyase; set-up: method as in library vendor description; conditions: ref library vendor description; cited from earlier work
# EGFR(E746_A750) = tested on: EGFR(E746_A750); set-up: method as in library vendor description; conditions: ref library vendor description; cited from earlier work
# EGFRL858R = tested on: EGFRL858R; set-up: method as in library vendor description; conditions: ref library vendor description; cited from earlier work
# EGFRL858R/T790M = tested on: EGFRL858R/T790M; set-up: method as in library vendor description; conditions: ref library vendor description; cited from earlier work
# [12] = tested on: Toxoplasma gondii RH-2F tachyzoites; conditions: 5 μM compound, 72 h, RH-2F in HFFs; DMSO 0%, 10 μM pyrimethamine 100% inhibition
# [13] = tested on: human foreskin fibroblasts (HFFs)
# IGF-1R = tested on: IGF-1R; set-up: method as in library vendor description; conditions: ref library vendor description; cited from earlier work
# NWT-21 fibrosarcoma = conditions: dose of 50 mg/kg; cited from earlier work
# [14] = tested on: NWT-21 cells (NIH3T3 stably expressing the human IGF-IR); conditions: in vitro; read-out: IC50 against NWT-21 cells; cited from earlier work
# [15] = read-out: Parasite inhibition (%) mean, preliminary screen, mean
# [16] = read-out: Parasite inhibition (%) mean
molecule,measurement,setting,value
CC(C)c1cc(C(=O)N2Cc3ccc(CN4CCN(C)CC4)cc3C2)c(O)cc1O [AT13387],IC50,A375 cells,18 nM
same,inhibition of growth at 5 µM,[1]; [15],-1.7%
Cn1c(CCCC(=O)O)nc2cc(N(CCCl)CCCl)ccc21 [Bendamustine HCL],inhibition of growth at 5 µM,[1]; [16],0.4%
same,IC50,[2],50000 nM
Cc1nc(N)sc1-c1ccnc(Nc2ccc(N3CCOCC3)cc2)n1 [CYC116],Ki,Aurora A,8 nM
same,inhibition of growth at 5 µM,[1]; [15],71.7%
same,viability at 72 h,in vitro,60.6%
CC(C)(C)OC(=O)N[C@H]1CCCCC/C=C\[C@@H]2C[C@@]2(C(=O)NS(=O)(=O)C2CC2)NC(=O)[C@@H]2C[C@@H](OC(=O)N3Cc4cccc(F)c4C3)CN2C1=O [Danoprevir],IC50,[3],0.2 to 3.5 nM
same,inhibition of growth at 5 µM,[1]; [15],0.9%
CCOC(=O)CCNc1cc(N2CCc3ccccc3CC2)nc(-c2ccccn2)n1 [GSK-J4 HCl],toxicity in experimental mice,[4]; 50 mg/kg of body weight for 4–6 weeks,no apparent toxicity
same,effect on ability of parasites to invade host cells,RH GFP-TgAtg8 parasites,not affected
same,effect on Toxoplasma egress,GFP-TgAtg8 tachyzoites [5],neither NVP-AEW541 nor GSK-J4 HCl inhibits Toxoplasma egress
same,IC50,[6]; Toxoplasma gondii,2370 nM
same,IC50,Kasumi-1 cells [7],5520 nM
same,TD50 against HFF (host cell),[8],34.6 µM
same,survival time of infected mice,T. gondii RH strain,15.2 ± 1.69 days
same,effect on Toxoplasma intracellular growth (tachyzoites per vacuole),[9],significantly inhibited Toxoplasma intracellular growth
same,inhibition at 5 µM,[1]; read-out: Parasite inhibition (%) Mean ± SD,90.4 ± 1.4%
same,percentage of parasites in G1 phase,GFP-TgAtg8 tachyzoites [10],70.88%
same,percentage of parasites in G2 phase,GFP-TgAtg8 tachyzoites [10],0.00%
same,percentage of parasites in S phase,GFP-TgAtg8 tachyzoites [10],29.12%
same,"viability at 72 h, 5 µM",in vitro; Host viability (%) Mean ± SD,92.2 ± 3.8%
same,viability at 72 h,in vitro,92.2%
same,leukemia infiltration in AML xenograft mouse model,Kasumi-1 cells [11],decreased leukemia infiltration
CC(C)c1cc(-c2n[nH]c(=O)n2-c2ccc3c(ccn3C)c2)c(O)cc1O [Ganetespib (STA-9090)],IC50,OSA 8 cells,4 nM
same,inhibition of growth at 5 µM,[1]; [15],5.1%
Nc1ccn([C@@H]2O[C@@H](CO)[C@@H](O)C2(F)F)c(=O)n1 [Gemcitabine HCl (Gemzar)],IC50,PANC1 cells,50 nM
same,IC50,Capan2 cells,12 nM
same,IC50,BxPC3 cells,18 nM
same,inhibition of growth at 5 µM,[1]; [15],75.4%
same,viability,in vitro,16.8%
same,IC50,MIAPaCa2 cells,40 nM
CCCS(=O)(=O)Nc1ccc(F)c(C(=O)c2c[nH]c3ncc(Cl)cc23)c1F [PLX-4720],inhibition of growth at 5 µM,[1]; [15],0.2%
same,IC50,c-Raf-1Y340D/Y341D,6.7 nM
CC(C)(C)c1cnc(CSc2cnc(NC(=O)C3CCNCC3)s2)o1 [SNS-032 (BMS-387032)],IC50,CDK9,[…]
same,inhibition of growth at 5 µM,[1]; [15],9.9%
CNC(=O)c1ccc2cc(C3(O)CCn4cncc43)ccc2c1 (stereo not drawn) [TAK-700 (Orteronel)],IC50,"rat 17,20-lyase",54 nM
same,inhibition of growth at 5 µM,[1]; [15],0.9%
same,IC50,"human 17,20-lyase",38 nM
C=CC(=O)Nc1cccc(Oc2nc(Nc3ccc(N4CCN(C)CC4)cc3)ncc2Cl)c1 [WZ3146],IC50,EGFR(E746_A750),2 nM
same,IC50,EGFRL858R,2 nM
same,inhibition of growth at 5 µM,[1]; [16],-33.7%
C=CC(=O)Nc1cccc(Oc2nc(Nc3ccc(N4CCN(C)CC4)cc3OC)ncc2Cl)c1 [WZ4002],IC50,EGFRL858R,[…]
same,inhibition of growth at 5 µM,[1]; [15],-5.9%
NVP-AEW541,Parasite inhibition (%) Mean ± SD,[12],91.5 ± 2.5%
same,toxicity in experimental mice,[4]; 50 mg/kg of body weight for 1–2 weeks,no apparent toxicity
same,Host viability (%) mean,[13],80.7%
same,Host viability (%) Mean ± SD,[13]; 5 µM,80.7 ± 1.2%
same,effect on Toxoplasma egress,GFP-TgAtg8 tachyzoites [5],neither NVP-AEW541 nor GSK-J4 HCl inhibits Toxoplasma egress
same,IC50,"[6]; RH-2F-infected HFFs, serial dilutions 0 to 100 μM, β-Gal activity",1170 nM
same,IC50,IGF-1R,86 nM
same,anti-tumour activity in mouse model,NWT-21 fibrosarcoma,had anti-NWT-21 fibrosarcoma activity
same,TD50 against HFF (host cell),[8],7.3 µM
same,survival time of infected mice,T. gondii RH strain,14.6 ± 1.84 days
same,effect on Toxoplasma intracellular growth (tachyzoites per vacuole),[9],not impaired
same,percentage of parasites in G1 phase,GFP-TgAtg8 tachyzoites [10],44.25%
same,percentage of parasites in G2 phase,GFP-TgAtg8 tachyzoites [10],8.30%
same,percentage of parasites in S phase,GFP-TgAtg8 tachyzoites [10],47.45%
same,IC50,[14],1640 nM
